Measured values: US11787837B2, “DCHBS-active esters of PEG compounds and their use” (Novo Nordisk A/S, priority 2016, dated 2023)

Test: Hydrolytic stability of activated side chains (hydrolysis at pH ~10.3, UPLC/HPLC area comparison at 210 nm)
Assay type: physicochemical
Settings: for hydrolytic stability (in words): basic conditions, pH 10.3; for activated side chain still remaining: pH 10.3, hydrolysis times around 1100-1300 minutes
Description: 0.1 mmol of each activated side chain was dissolved in 1.0 mL NMP. To this solution was added 5 mL 1M NaHCO3 buffer solution adjusted to pH 10.0 with NaOH. Solution was stirred (pH ˜10.3) with aliquots being taken at different time intervals to determine to which extent the various activated side chains were hydrolysed.
The reaction mixtures were analysed by UPLC (Example no. 2 and E—UPLC_A_1) and HPLC (Example no. 1, B, C, and D—HPLC_A_1), and the percent of hydrolysis for the various side chains was estimated by area comparison in UV detection at 210 nm. In each example, the combined areas for released activation group (peak A) and non-activated side chain (peak B), was compared to area for activated side chain (peak C). The retention times (rt-A, rt-B, and rt-C for the various peaks (peak A, peak B, and peak C) for each side chain are summarised as follows; 1 (rt-A=1.94 min, rt-B=7.18-7.25 min, rt-C=7.48 min, HPLC_A_1), 2 (rt-A=0.48 min, rt-B=2.11 min, rt-C=2.29 min, UPLC_A_1), B (only rt-B detected at time point for analysis), C (rt-A=4.40 min, rt-B=7.25 min, HPLC_A_1), D (rt-A=4.01 min, rt-B=7.25 min, rt-C=10.16 min, HPLC_A_1), E (rt-A=2.08 min, rt-B=2.10 min, rt-C=2.10 min, UPLC_A_1).
The hydrolytic stability of the activated side chains of Examples 1 and 8B to 8D was tested. The hydrolysis protocol from Example 9 was used for the stability test.

[1] = Table 5, hydrolysis time 1380 min, method UPLC_A_4

In the case of `COCC(=O)Oc1c(Cl)cc(Cl)cc1S(=O)(=O)O` [Example 8B, 3,5-dichloro-2-(2-methoxyacetyl)oxy-benzenesulfonic acid], the “Hydrolysis (%) at pH 10.3” value [1] is reported as 96%.

In the case of `O=C(O)CCCCCCCCCCCCCCCCCCC(=O)NC[C@H]1CC[C@H](C(=O)N[C@@H](CCC(=O)NCCOCCOCC(=O)NCCOCCOCC(=O)Oc2c(Cl)cc(Cl)cc2S(=O)(=O)O)C(=O)O)CC1` [Example 1, 20-[[4-[[(1S)-1-carboxy-4-[2-[2-[2-[2-[2-[2-(2,4-dichloro-6-sulfo-phenoxy)-2-oxo-ethoxy]ethoxy]ethylamino]-2-oxo-ethoxy]ethoxy]ethylamino]-4-oxo-butyl]carbamoyl]cyclohexyl]methylamino]-20-oxo-icosanoic acid], the “Hydrolysis (%) at pH 10.3” value (Table 5, hydrolysis time 1269 min, method UPLC_A_1) is reported as 88.1%, the “hydrolytic stability (in words)” value is reported as “much more stable against hydrolysis” and the “Hydrolysis (%) at pH 10.3” value (hydrolysis time 1269 min, NMP + 1M NaHCO3 buffer, pH ~10.3, HPLC_A_1) is reported as 88.1%. The “activated side chain still remaining” value was “approximately 12%”.

For `O=C(O)CCCCCCCCCCCCCCCCCCC(=O)NC[C@H]1CC[C@H](C(=O)N[C@@H](CCC(=O)NCCOCCOCC(=O)NCCOCCOCC(=O)Oc2c(Cl)cccc2Cl)C(=O)O)CC1` [Example D, 20-[[4-[[(1S)-1-carboxy-4-[2-[2-[2-[2-[2-[2-(2,6-dichlorophenoxy)-2-oxo-ethoxy]ethoxy]ethylamino]-2-oxo-ethoxy]ethoxy]ethylamino]-4-oxo-butyl]carbamoyl]cyclohexyl]methylamino]-20-oxo-icosanoic acid, reference compound], the “hydrolytic stability (in words)” value was “hydrolyse very fast and almost quantitatively” and the “Hydrolysis (%) at pH 10.3” value (hydrolysis time 2 min, NMP + 1M NaHCO3 buffer, pH ~10.3, HPLC_A_1) was 93.4%.

For `O=C(O)CCCCCCCCCCCCCCCCC(=O)N[C@@H](CCC(=O)NCCOCCOCC(=O)NCCOCCOCC(=O)Oc1c(Cl)cc(Cl)cc1S(=O)(=O)O)C(=O)O` [Example 2, 18-[[(1S)-1-carboxy-4-[2-[2-[2-[2-[2-[2-(2,4-dichloro-6-sulfo-phenoxy)-2-oxo-ethoxy]ethoxy]ethylamino]-2-oxo-ethoxy]ethoxy]ethylamino]-4-oxo-butyl]amino]-18-oxo-octadecanoic acid], the “hydrolytic stability (in words)” value was “much more stable against hydrolysis”, the “Hydrolysis (%) at pH 10.3” value (hydrolysis time 1070 min, NMP + 1M NaHCO3 buffer, pH ~10.3, UPLC_A_1) was 88.1% and the “activated side chain still remaining” value was “approximately 12%”.

For `C#CCOCCOCCOCCOCCC(=O)Oc1c(Cl)cc(Cl)cc1S(=O)(=O)O` [Example 8D, 3,5-dichloro-2-[3-[2-[2-(2-prop-2-ynoxyethoxy)ethoxy]ethoxy]propanoyloxy]benzenesulfonic acid], the “Hydrolysis (%) at pH 10.3” value (Table 5, hydrolysis time 1440 min, method UPLC_A_5) was 67%.

In the case of `O=C(O)CCCCCCCCCCCCCCCCC(=O)N[C@@H](CCC(=O)NCCOCCOCC(=O)NCCOCCOCC(=O)Oc1c(Cl)cc(S(=O)(=O)O)cc1Cl)C(=O)O` [Example E, 18-[[(1S)-1-carboxy-4-[2-[2-[2-[2-[2-[2-(2,6-dichloro-4-sulfo-phenoxy)-2-oxo-ethoxy]ethoxy]ethylamino]-2-oxo-ethoxy]ethoxy]ethylamino]-4-oxo-butyl]amino]-18-oxo-octadecanoic acid, reference compound], the “Hydrolysis (%) at pH 10.3” value (hydrolysis time 2.5 min, NMP + 1M NaHCO3 buffer, pH ~10.3, UPLC_A_1) is reported as “Quantitative (more than 99% of the side chain being hydrolysed)”.

For `O=C(O)CCCCCCCCCCCCCCCCCCC(=O)NC[C@H]1CC[C@H](C(=O)N[C@@H](CCC(=O)NCCOCCOCC(=O)NCCOCCOCC(=O)ON2C(=O)CCC2=O)C(=O)O)CC1` [Example B, 20-[[4-[[(1S)-1-carboxy-4-[2-[2-[2-[2-[2-[2-(2,5-dioxopyrrolidin-1-yl)oxy-2-oxo-ethoxy]ethoxy]ethylamino]-2-oxo-ethoxy]ethoxy]ethylamino]-4-oxo-butyl]carbamoyl]cyclohexyl]methylamino]-20-oxo-icosanoic acid, reference compound], the “hydrolytic stability (in words)” value was “hydrolytically very unstable” and the “Hydrolysis (%) at pH 10.3” value (hydrolysis time 0 min (within a minute), NMP + 1M NaHCO3 buffer, pH ~10.3, HPLC_A_1) was “Quantitative (more than 99% of the side chain being hydrolysed)”.

For `CN(C)S(=O)(=O)c1cc(Cl)cc(Cl)c1OC(=O)COCCOCCNC(=O)COCCOCCNC(=O)CC[C@H](NC(=O)CCCCCCCCCCCCCCCCC(=O)O)C(=O)O` [Example 8C], the “Hydrolysis (%) at pH 10.3” value [1] was 60%.

In the case of `O=C(O)CCCCCCCCCCCCCCCCCCC(=O)NC[C@H]1CC[C@H](C(=O)N[C@@H](CCC(=O)NCCOCCOCC(=O)NCCOCCOCC(=O)Oc2ccc(Cl)cc2Cl)C(=O)O)CC1` [Example C, 20-[[4-[[(1S)-1-carboxy-4-[2-[2-[2-[2-[2-[2-(2,4-dichlorophenoxy)-2-oxo-ethoxy]ethoxy]ethylamino]-2-oxo-ethoxy]ethoxy]ethylamino]-4-oxo-butyl]carbamoyl]cyclohexyl]methylamino]-20-oxo-icosanoic acid, reference compound], the “hydrolytic stability (in words)” value is reported as “hydrolyse very fast and almost quantitatively” and the “Hydrolysis (%) at pH 10.3” value (hydrolysis time 0.16 min, NMP + 1M NaHCO3 buffer, pH ~10.3, HPLC_A_1) is reported as “Quantitative (more than 99% of the side chain being hydrolysed)”.
